Laboratory results taken from patent US7687079B2, “Methods of treating ileus” (priority 2002, dated 2010).
Entries after “also recorded” stand apart in the source; their conditions may differ.

Tests used:
serum nitrite/nitrate = serum nitrite/nitrate levels after SITx (Griess reaction); format: in vivo, rat; conditions: SITx + CO vs SITx with air
Description: To monitor the stable end-products of NO metabolism, serum […] levels at 1, 4, and 24 hrs were measured using a commercially available test kit (Cayman, Ann Arbor, Mich.) and quantified according to the manufacturer's directions. In this assay system, nitrate is reduced to nitrite using nitrate reductase, and the nitrite concentration of the sample is subsequently measured using the Griess reaction.
FIG. 6 is a set of bar graphs that illustrate the effect of CO on serum IL-6 and nitrate/nitrite concentrations in animals receiving intestinal grafts at one and four hours after reperfusion. […] Serum IL-6 concentrations were determined using a rat enzyme-linked immunoassay (ELISA) kit (R&D, Cambridge, Mass.). The serum nitrite/nitrate levels, the stable end products of NO metabolism, were measured using a commercially available test kit (Cayman, Ann Arbor, Mich.). In this assay system, nitrate is reduced to nitrite using nitrate reductase, and nitrite concentration of the sample was subsequently measured using the Griess reaction. Serum IL-6 and nitrite/nitrate levels in animals subjected SITx and treated with air increased over time.

[1] = system: small intestinal circular muscle; assay: in vitro circular muscle contractility (spontaneous and bethanechol-stimulated) after IM; format: in vivo, mouse
Source text: Surgical Manipulation. Mice were anesthetized with inhaled isoflurane and the abdomen opened by midline laparotomy. The small intestine was eventrated and gently compressed along its entire length using moistened sterile cotton applicators. This procedure is designed to simulate “running” of the bowel commonly performed during abdominal surgery in the clinical setting. The bowel was repositioned in the abdominal cavity and the incision closed by two layers of continuous sutures. The duration of the procedure was approximately 15 minutes and the animals moved freely about their cage within 20 minutes of withdrawal of anesthetic.
CO Inhalation Treatment. Mice housed in cages were placed in plexiglass chambers that were continuously ventilated with air or with air containing CO (250 ppm). A sampling port was provided to continuously monitor carbon monoxide concentrations within the chamber. Animals had free access to food and water at all times. Mice were exposed to CO or air 1 hour prior to laparotomy, removed for surgical manipulation, and then returned to the chamber for 24 hours. Mice not undergoing surgery were removed from the chamber for a similar length of time and then returned to the chamber for 24 hours.
Mice were anesthetized and killed by exsanguination at the end of the 24-hour chamber treatment with CO or room air. In vitro circular muscle mechanical activity was measured as previously described in Eskandari et al. (Am. J. Physiol. 273:G727-G734 (1997)). Briefly, a segment of mid small bowel was pinned in a Sylgard™ (Midland, Mich.) lined dissecting dish containing pre-oxygenated Krebs-Ringer-bicarbonate buffer (KRB; in mM: 137.4 Na^+, 5.9 K^+, 2.5 Ca^2+, 1.2 Mg^2+, 134 Cl^−, 15.5 HCO3^−, 1.2 H2PO4−, and 11.5 glucose), gassed with 97% O2/3% CO2 to establish a pH of 7.4. The intestine was opened along the mesenteric border, and the mucosa removed by stripping with fine forceps. Full-thickness strips of muscularis (1×6 mm) cut parallel to the circular muscle layer were mounted in standard horizontal mechanical organ chambers and were continuously superfused with preoxygenated KRB maintained at 37° C. One end of each strip was attached by ligature to a fixed post and the other to an isometric force transducer (WPI, Sarasota, Fla.). Strips were allowed to equilibrate for 1 hour, after which they were incrementally stretched to Lo (length at which maximal spontaneous contraction occurs). After a baseline recording period of 30 min, contractility-response curves were generated by exposing the tissues to increasing concentrations of the muscarinic agonist bethanechol (0.3 to 300 μM) for 10 minutes, followed by intervening 10-minute wash periods. Contractile activity was calculated by integrating the area under the trace. The response was normalized to the amount of tissue by converting the weight (1.03 mg/mm^2) and length of the strip to square millimeters of tissue, and reported as g/s/mm^2. Intestinal transit was measured in controls and manipulated animals 24 hours postoperatively by evaluating the intestinal distribution of a non-absorbable fluorescein-labeled dextran (MW 70,000). Animals were lightly sedated with isofluran and fed orally with labeled dextran (100 μl of 25 mg/ml stock solution). Ninety minutes after administration, the animal was sacrificed and the entire bowel from stomach to distal colon was collected. The contents of the stomach, small bowel (divided into 10 segments of equal length), the cecum, and colon (3 segments of equal length) were each minced in 1 ml of saline and mixed vigorously to release the dextran present in each segment. After pelleting the intestinal tissue and chyme, aliquots of the cleared supernatant were read in duplicate on a plate reader (CytoFluor II; excitation wavelength 530 nm and emission 590 nm) for quantification of the fluorescent signal in each bowel segment. […]

[2] = system: MPO+ cells infiltrating the muscularis; assay: MPO histochemistry, leukocytes infiltrating intestinal muscularis after IM; format: in vivo, mouse; conditions: control and IM groups, 24 hr
Description: MPO Histochemistry. Muscularis whole-mounts were prepared from the mid-jejunum collected 24 hr post-operatively. Segments of intestine were immersed in KRB in a Sylgard lined glass dish (Midland, Mich.) and pinned without stretching along the mesenteric border. The length and width of the segments were measured with a caliper. The jejunal segment was then opened along the mesenteric border and stretched to 150% of the length and 250% of the width. The mucosa was removed using fine forceps, and the remaining tissue fixed in 100% denatured ethanol for 30 min. […] Tissues were mounted on glass slides using Gel/Mount™ (Biomedia Corp., Foster City, Calif.), cover-slipped and inspected by light microscopy (Nikon Microphot-FXA, Fryer, Huntley, Ill.) at a magnification of 200×. PMN's were counted in five to six adjacent optical fields centered between the mesenteric and antimesenteric borders.

circular muscle strip = assay: Example 3 circular muscle strip contractions in response to bethanechol after IM; format: in vivo, mouse; conditions: IM+CO mice (250 and 500 ppm), bethanechol 100 μM, 24 hours
Description: (§1) Ileus was induced in mice by gentle manipulation of the small intestine. An incision was made to expose the abdominal cavity of the mouse, and bowel manipulation was performed by gentle poking and prodding of the small intestine (see, e.g., Schwarz et al., Gastroenterology 121(6):1354-1357 (2001)). The incision was subsequently closed, and analyses were performed 24 hours later. Mice were exposed to CO by inhalation (250 and 500 ppm) for 1 hour immediately prior to intestinal manipulation and during the entire 24-hour recovery period. Intestinal contractility was assessed in vitro by measuring circular muscle strip contractions in response to bethanechol (0.3-300 μM) and in vivo by determining intestinal transit from the distribution of orally-fed, fluorescein-labeled dextran and calculating geometric center as described in Example 1 above. HO-1 and IL-10 mRNA expression were determined by SYBR green real time RT-PCR from extracts of muscularis extemae, as described in Example 1 above. Release of nitric oxide (NO), a potent inhibitor of smooth muscle contractility, was estimated by measuring serum total nitrite, also described in Example 1 above.

[3] = system: mice with ileus induced by manipulation of the small intestine; assay: Example 3 intestinal transit, geometric center after IM; format: in vivo, mouse; conditions: IM+CO mice (250 and 500 ppm), 24 hours
Description: as §1

`[C-]#[O+]` [CO, carbon monoxide] was tested, and the serum nitrite/nitrate level (serum nitrite/nitrate) was “significantly decreased”, the bethanechol-induced contractile activity ([1]; IM + CO) was “restored contractile activity to control levels” and the peak contractile force ([1]; IM + CO 250 ppm, 100 μM bethanechol) was 3.6±0.7 g/s/mm^2. The “spontaneous contractile activity (rythmicity)” value ([1]; IM mice treated with CO) was “significantly improved; also recorded: restored”, the bethanechol-induced contractile activity ([1]; control animals + CO) was “no effect” and the spontaneous contractility ([1]; control mice + CO 24 hr) was “no effect”. The peak contractile force ([1]; control mice, CO alone, bethanechol) was 3.2±0.5 g/s/mm^2, the “magnitude of the leukocyte infiltrate (MPO+ cells)” value [2] was “no effect” and the peak contractile force (circular muscle strip) was 1.9±0.5 g/s/mm^2. The geometric center [3] was 6.3±0.8.
